Patent US20260138976A1 (Hoffmann-La Roche Inc., priority 2022, published 2026)
Read-outs that look alike come from different tables or passages of the source.

Assays:
DGK α kinase = target: T1, DGK α kinase (Homo sapiens, UniProt P23743); experiment: DGKalpha kinase ADP Glo assay run by Reaction Biology Corp.; assay type: biochemical; conditions: 2 nM kinase, 50 µM ATP, 500 μM DLG, 10-dose duplicate
T1 construct: purchased Reaction Biology Corp. (contract assay service)
Procedure: DGK α and ζ kinases use ATP to phosphorylate the substrate 1,2-dilauroyl-sn-glycerol (DLG). ATP is converted to ADP as a result of this enzymatic reaction.
After the kinase reaction, an ATP-depletion reagent is added to terminate the kinase reaction and deplete any remaining ATP, leaving only ADP. Second, a detection reagent is added to simultaneously convert ADP to ATP and allow the newly synthesized ATP to be converted to light using a coupled luciferase/luciferin reaction.
DGK α and ζ kinase ADP Glo assays were ran by Reaction Biology Corp., 1 Great Valley Parkway, Suite 2, Malvern, 19355, PA, USA. Information provided by the service provider are the following: DGK α and ζ kinases were used at 2 nM final concentration. Reactions were carried out at 50 µM ATP. 500 μM of the substrate DLG (Dilauroyl-sn-glycerol) was used.

primary human T-cells = experiment: IL2 secretion measurements (24 h, CD3-stimulated T-cells, PBS counter screen); assay type: cell-based; conditions: for Emax IL2 (% activation): CD3 condition, normalised to DMSO (neutral) and 20 μM reference compound A1 = 100%; for EC50: CD3-stimulated primary human T-cells, IL2 secretion, fitted sigmoidal curve, read-out: Tcell IL2 CD3 EC50
How it was run: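 Expanded primary human T-cells (100k/well) were plated on anti-CD3-coated or PBS-only plates with compound in a 5–6 point dose response (top 20 or 10 μM final, 3.333-fold, 0.2% DMSO). IL-2 in 24 h supernatants was quantified by ProQuantum immunoassay or ELISA. Values were normalized to DMSO and 20 μM reference compound A1 (100%), giving EC50 and Emax.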

T1 sequence (P23743 whole entry): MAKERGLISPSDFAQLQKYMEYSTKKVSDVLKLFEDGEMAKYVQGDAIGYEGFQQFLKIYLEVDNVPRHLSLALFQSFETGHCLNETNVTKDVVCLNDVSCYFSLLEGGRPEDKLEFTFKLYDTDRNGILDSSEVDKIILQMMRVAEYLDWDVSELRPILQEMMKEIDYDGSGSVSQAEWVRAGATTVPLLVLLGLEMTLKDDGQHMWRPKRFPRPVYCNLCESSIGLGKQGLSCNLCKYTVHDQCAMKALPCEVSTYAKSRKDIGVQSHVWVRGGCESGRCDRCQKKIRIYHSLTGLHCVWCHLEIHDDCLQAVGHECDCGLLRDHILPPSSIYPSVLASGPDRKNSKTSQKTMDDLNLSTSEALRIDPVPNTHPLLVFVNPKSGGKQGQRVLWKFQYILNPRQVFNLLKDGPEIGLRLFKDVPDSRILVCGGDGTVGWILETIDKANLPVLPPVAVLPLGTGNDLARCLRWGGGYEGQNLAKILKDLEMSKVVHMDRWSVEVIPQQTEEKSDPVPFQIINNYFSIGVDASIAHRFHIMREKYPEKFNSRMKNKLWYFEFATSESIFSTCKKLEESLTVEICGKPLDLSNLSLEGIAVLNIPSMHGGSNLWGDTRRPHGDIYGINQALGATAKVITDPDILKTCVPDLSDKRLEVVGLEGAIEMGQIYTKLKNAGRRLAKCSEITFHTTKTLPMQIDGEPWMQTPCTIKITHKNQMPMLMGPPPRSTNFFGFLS

IC50 (DGK α kinase)	Structure (SMILES)	Emax IL2 (% activation) (primary human T-cells)	EC50 (primary human T-cells; Homo sapiens, T-cell)	EC50 (primary human T-cells)
282 nM	CC(C)(C)c1nnc(-c2ccc3c(c2)N(Cc2ccc(-c4nnc(C(F)(F)F)o4)cc2)C(=O)[C@@H](N)CS3(=O)=O)o1 [Example 24, (3R)-3-amino-7-(5-tert-butyl-1,3,4-oxadiazol-2-yl)-1,1-dioxo-5-[[4-[5-(trifluoromethyl)-1,3,4-oxadiazol-2-yl]phenyl]methyl]-2,3-dihydro-1λ^6,5-benzothiazepin-4-one]	131 % activation	1060 nM	–
–	CC(C)(C#N)c1nnc(-c2ccc3c(c2)N(Cc2ccc(-n4nnc(C(F)(F)F)n4)cc2)C(=O)[C@@H](N)CS3(=O)=O)o1 [Example 120, 2-[5-[(3R)-3-amino-1,1,4-trioxo-5-[[4-[5-(trifluoromethyl)tetrazol-2-yl]phenyl]methyl]-2,3-dihydro-1λ^6,5-benzothiazepin-7-yl]-1,3,4-oxadiazol-2-yl]-2-methyl-propanenitrile]	135 % activation	1330 nM	–
–	CC(C)(C#N)c1nnc(-c2ccc3c(c2)N(Cc2ccc(-c4nc(C(F)(F)F)co4)cc2)C(=O)[C@@H](N)CS3(=O)=O)o1 [Example 123, 2-[5-[(3R)-3-amino-1,1,4-trioxo-5-[[4-[4-(trifluoromethyl)oxazol-2-yl]phenyl]methyl]-2,3-dihydro-1λ^6,5-benzothiazepin-7-yl]-1,3,4-oxadiazol-2-yl]-2-methyl-propanenitrile]	144 % activation	1250 nM	–
–	COc1ccc(-c2ccc(CN3C(=O)[C@@H](N)CS(=O)(=O)c4ccc(-c5nnc(C(C)(C)C#N)o5)cc43)cc2)nc1 [Example 125]	97 % activation	4280 nM	–
–	CC(C)(C#N)c1nnc(-c2ccc3c(c2)N(Cc2ccc(-c4cc(OC(F)(F)F)ccn4)cc2)C(=O)[C@@H](N)CS3(=O)=O)o1 [Example 126, 2-[5-[(3R)-3-amino-1,1,4-trioxo-5-[[4-[4-(trifluoromethoxy)-2-pyridyl]phenyl]methyl]-2,3-dihydro-1λ^6,5-benzothiazepin-7-yl]-1,3,4-oxadiazol-2-yl]-2-methyl-propanenitrile]	254 % activation	2110 nM	–
–	CC(C)(C#N)c1nnc(-c2ccc3c(c2)N(Cc2ccc(-c4ncc(C(F)(F)F)cn4)cc2)C(=O)[C@@H](N)CS3(=O)=O)o1 [Example 127, 2-[5-[(3R)-3-amino-1,1,4-trioxo-5-[[4-[5-(trifluoromethyl)pyrimidin-2-yl]phenyl]methyl]-2,3-dihydro-1λ^6,5-benzothiazepin-7-yl]-1,3,4-oxadiazol-2-yl]-2-methyl-propanenitrile]	112 % activation	4560 nM	–
–	CC(C)(C#N)c1nnc(-c2ccc3c(c2)N(Cc2ccc(-c4ccc(OC(F)(F)C(F)(F)F)cn4)cc2)C(=O)[C@@H](N)CS3(=O)=O)o1 [Example 129, 2-[5-[(3R)-3-amino-1,1,4-trioxo-5-[[4-[5-(1,1,2,2,2-pentafluoroethoxy)-2-pyridyl]phenyl]methyl]-2,3-dihydro-1λ^6,5-benzothiazepin-7-yl]-1,3,4-oxadiazol-2-yl]-2-methyl-propanenitrile]	187 % activation	552 nM	–
–	N[C@H]1CS(=O)(=O)c2ccc(-c3nnc(C4(C(F)F)CNC4)o3)cc2N(Cc2ccc(-c3ccc(C(F)(F)F)cc3)cc2)C1=O [Example 152]	19 % activation	> 10000 nM	–
–	C[C@@](N)(c1nnc(-c2ccc3c(c2)N(Cc2ccc(-c4ccc(OC(F)(F)F)cn4)cc2)C(=O)[C@@H](N)CS3(=O)=O)o1)C(F)(F)F [Example 153, (3R)-3-amino-7-[5-[(1R)-1-amino-2,2,2-trifluoro-1-methyl-ethyl]-1,3,4-oxadiazol-2-yl]-1,1-dioxo-5-[[4-[5-(trifluoromethoxy)-2-pyridyl]phenyl]methyl]-2,3-dihydro-1λ^6,5-benzothiazepin-4-one]	193 % activation	245 nM	–
–	C[C@@](N)(c1nnc(-c2ccc3c(c2)N(Cc2ccc(-c4ccc(C(F)(F)F)cn4)cc2)C(=O)[C@@H](N)CS3(=O)=O)o1)C(F)(F)F [Example 154, (3R)-3-amino-7-[5-[(1R)-1-amino-2,2,2-trifluoro-1-methyl-ethyl]-1,3,4-oxadiazol-2-yl]-1,1-dioxo-5-[[4-[5-(trifluoromethyl)-2-pyridyl]phenyl]methyl]-2,3-dihydro-1λ^6,5-benzothiazepin-4-one]	127 % activation	991 nM	–
–	C[C@@](N)(c1nnc(-c2ccc3c(c2)N(Cc2ccc(-n4nnc(C(F)(F)F)n4)cc2)C(=O)[C@@H](N)CS3(=O)=O)o1)C(F)(F)F [Example 156, (3R)-3-amino-7-[5-[(1R)-1-amino-2,2,2-trifluoro-1-methyl-ethyl]-1,3,4-oxadiazol-2-yl]-1,1-dioxo-5-[[4-[5-(trifluoromethyl)tetrazo 1-2-yl]phenyl]methyl]-2,3-dihydro-1λ^6,5-benzothiazepin-4-one]	554 % activation	2110 nM	–
–	COC(=O)N1CC2CC(c3nnc(-c4ccc5c(c4)N(Cc4ccc(-c6noc(C(F)(F)F)n6)cc4)C(=O)[C@@H](N)CS5(=O)=O)o3)(C2)C1 [Example 158, methyl 1-[5-[(3R)-3-amino-1,1,4-trioxo-5-[[4-[5-(trifluoromethyl)-1,2,4-oxadiazol-3-yl]phenyl]methyl]-2,3-dihydro-1λ^6,5-benzothiazepin-7-yl]-1,3,4-oxadiazol-2-yl]-3-azabicyclo[3.1.1]heptane-3-carboxylate]	345 % activation	–	1340 nM
–	N[C@H]1CS(=O)(=O)c2ccc(-c3nnc(N4CCC(F)(F)CC4)o3)cc2N(Cc2ccc(-c3ccc(C(F)(F)F)cn3)cc2)C1=O [Example 160]	55 % activation	6430 nM	–
–	N[C@H]1CS(=O)(=O)c2ccc(-c3nnc(N4CCC(F)(F)CC4)o3)cc2N(Cc2ccc(-n3ccc(C(F)(F)F)n3)cc2)C1=O [Example 162, (3R)-3-amino-7-[5-(4,4-difluoro-1-piperidyl)-1,3,4-oxadiazol-2-yl]-1,1-dioxo-5-[[4-[3-(trifluoromethyl)pyrazol-1-yl]phenyl]methyl]-2,3-dihydro-1λ^6,5-benzothiazepin-4-one]	185 % activation	1410 nM	–
–	CC(C)(c1nnc(-c2ccc3c(c2)N(Cc2ccc(-c4ccc(OC(F)(F)F)cn4)cc2)C(=O)[C@@H](N)CS3(=O)=O)o1)C(F)(F)F [Example 165, (3R)-3-amino-1,1-dioxo-7-[5-(2,2,2-trifluoro-1,1-dimethyl-ethyl)-1,3,4-oxadiazol-2-yl]-5-[[4-[5-(trifluoromethoxy)-2-pyridyl]phenyl]methyl]-2,3-dihydro-1λ^6,5-benzothiazepin-4-one]	123 % activation	1330 nM	–
–	N[C@H]1CS(=O)(=O)c2ccc(-c3nnc(C(F)C(F)(F)F)o3)cc2N(Cc2ccc(-c3noc(C4CC4)n3)cc2)C1=O (stereo partly drawn) [Example 168, (3R)-3-amino-5-[[4-(5-cyclopropyl-1,2,4-oxadiazol-3-yl)phenyl]methyl]-1,1-dioxo-7-[5-(1,2,2,2-tetrafluoroethyl)-1,3,4-oxadiazol-2-yl]-2,3-dihydro-1λ^6,5-benzothiazepin-4-one]	67 % activation	4870 nM	–
–	CC(O)(c1nnc(-c2ccc3c(c2)N(Cc2ccc(-c4noc(C5CC5)n4)cc2)C(=O)[C@@H](N)CS3(=O)=O)o1)C(F)(F)F (some centres unmarked) [Example 170]	79 % activation	8550 nM	–
–	N[C@H]1CS(=O)(=O)c2ccc(-c3nnc(C(N)(C4CC4)C(F)(F)F)o3)cc2N(Cc2ccc(-c3noc(C4CC4)n3)cc2)C1=O (some centres unmarked) [Example 171]	122 % activation	3780 nM	–
–	N#CC1(c2nnc(-c3ccc4c(c3)N(Cc3ccc(-c5ccc(OC(F)(F)F)cn5)cc3)C(=O)[C@@H](N)CS4(=O)=O)o2)CCC1 [Example 172, 1-[5-[(3R)-3-amino-1,1,4-trioxo-5-[[4-[5-(trifluoromethoxy)-2-pyridyl]phenyl]methyl]-2,3-dihydro-1λ^6,5-benzothiazepin-7-yl]-1,3,4-oxadiazol-2-yl]cyclobutanecarbonitrile]	120 % activation	1090 nM	–
–	CC(C)(CC#N)c1nnc(-c2ccc3c(c2)N(Cc2ccc(-c4ccc(OC(F)(F)F)cn4)cc2)C(=O)[C@@H](N)CS3(=O)=O)o1 [Example 175, 3-[5-[(3R)-3-amino-1,1,4-trioxo-5-[[4-[5-(trifluoromethoxy)-2-pyridyl]phenyl]methyl]-2,3-dihydro-1λ^6,5-benzothiazepin-7-yl]-1,3,4-oxadiazol-2-yl]-3-methyl-butanenitrile]	52 % activation	> 10000 nM	–
